Experimental data taken from patent US20250179000A1 (Sanford Burnham Prebys Medical Discovery Institute, priority 2021, published 2025).

Experiments:
Type in all cases: cell-based
[1] = target: T1, Rat mGlu2 (Rattus norvegicus, UniProt P31421); test: mGlu receptor in vitro assay, thallium flux through GIRK channels, rat mGlu2; details: PAM potency with EC20 glutamate
T1 construct: expressed in transfected cells; host or cells: HEK-293 co-expressing GIRK channels
Method in brief: (§1)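 HEK-293 cells co-expressing rat mGlu2 or mGlu3 and GIRK, dye-loaded with FluoZin2-AM, compound added about 2.5 min before thallium buffer with EC20 glutamate; potency from the 5-15 s fluorescence slope, 10-point 4-parameter fit. Calcium assay at mGlu3 used TREx293 mGlu3 Gα15 cells induced with tetracycline 20 ng/mL for 20 h.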

[2] = target: T2, Rat mGlu3 (Rattus norvegicus, UniProt P31422); test: mGlu receptor in vitro assay (thallium flux through GIRK channels / calcium assay), rat mGlu3; details: PAM potency with EC20 glutamate
T2 construct: expressed in transfected cells; host or cells: HEK-293 co-expressing GIRK channels
T2 sequence (P31422 23-879): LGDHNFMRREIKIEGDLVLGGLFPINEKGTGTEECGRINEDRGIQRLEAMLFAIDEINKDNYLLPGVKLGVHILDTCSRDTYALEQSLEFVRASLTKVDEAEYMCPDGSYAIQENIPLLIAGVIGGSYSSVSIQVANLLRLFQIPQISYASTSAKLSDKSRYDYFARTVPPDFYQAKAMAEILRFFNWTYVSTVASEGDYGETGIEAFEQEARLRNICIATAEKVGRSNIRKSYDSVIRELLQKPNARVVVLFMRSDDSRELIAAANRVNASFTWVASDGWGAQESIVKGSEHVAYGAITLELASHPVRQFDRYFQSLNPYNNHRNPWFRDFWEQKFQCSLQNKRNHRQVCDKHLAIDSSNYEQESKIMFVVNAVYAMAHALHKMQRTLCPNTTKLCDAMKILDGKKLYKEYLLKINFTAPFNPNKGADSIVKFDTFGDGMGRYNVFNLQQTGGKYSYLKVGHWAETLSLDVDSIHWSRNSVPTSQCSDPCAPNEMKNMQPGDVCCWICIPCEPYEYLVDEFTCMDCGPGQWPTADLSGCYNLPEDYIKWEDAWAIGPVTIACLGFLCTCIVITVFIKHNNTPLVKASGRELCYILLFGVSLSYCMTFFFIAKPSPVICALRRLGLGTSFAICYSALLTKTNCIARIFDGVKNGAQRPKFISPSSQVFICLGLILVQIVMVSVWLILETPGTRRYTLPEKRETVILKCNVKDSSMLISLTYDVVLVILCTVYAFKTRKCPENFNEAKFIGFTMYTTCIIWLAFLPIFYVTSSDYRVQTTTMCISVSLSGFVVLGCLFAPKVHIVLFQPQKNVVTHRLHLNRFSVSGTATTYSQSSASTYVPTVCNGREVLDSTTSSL
Method in brief: as §1

[3] = target: Human mGlu2 (Homo sapiens, UniProt Q14416); test: mGlu receptor in vitro assay, human mGlu2
Human mGlu2, sequence (Q14416 19-872): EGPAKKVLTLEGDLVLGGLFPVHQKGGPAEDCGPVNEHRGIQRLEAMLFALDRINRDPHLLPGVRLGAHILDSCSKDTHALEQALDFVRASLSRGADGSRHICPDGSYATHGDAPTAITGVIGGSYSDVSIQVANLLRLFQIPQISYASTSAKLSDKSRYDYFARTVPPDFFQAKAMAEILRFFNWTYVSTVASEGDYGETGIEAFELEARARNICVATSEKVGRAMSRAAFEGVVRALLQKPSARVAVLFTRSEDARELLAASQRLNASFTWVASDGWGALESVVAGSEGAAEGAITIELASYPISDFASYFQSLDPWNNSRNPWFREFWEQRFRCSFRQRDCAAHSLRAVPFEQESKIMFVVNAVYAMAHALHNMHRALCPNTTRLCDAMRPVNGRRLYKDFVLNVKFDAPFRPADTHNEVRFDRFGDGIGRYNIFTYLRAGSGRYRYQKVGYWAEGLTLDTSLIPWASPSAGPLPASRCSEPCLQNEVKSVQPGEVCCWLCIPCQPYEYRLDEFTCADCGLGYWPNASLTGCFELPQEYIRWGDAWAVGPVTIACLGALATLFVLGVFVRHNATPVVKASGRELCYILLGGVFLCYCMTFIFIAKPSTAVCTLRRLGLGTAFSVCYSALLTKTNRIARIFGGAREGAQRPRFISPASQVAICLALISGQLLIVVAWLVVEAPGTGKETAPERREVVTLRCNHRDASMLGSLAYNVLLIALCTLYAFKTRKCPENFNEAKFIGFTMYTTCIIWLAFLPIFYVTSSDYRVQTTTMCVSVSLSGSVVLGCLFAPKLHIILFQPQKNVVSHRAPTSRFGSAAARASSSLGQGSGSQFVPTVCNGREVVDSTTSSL

[4] = target: Human mGlu3 (Homo sapiens, UniProt Q14832); test: mGlu receptor in vitro assay, human mGlu3
Human mGlu3, sequence (Q14832 23-879): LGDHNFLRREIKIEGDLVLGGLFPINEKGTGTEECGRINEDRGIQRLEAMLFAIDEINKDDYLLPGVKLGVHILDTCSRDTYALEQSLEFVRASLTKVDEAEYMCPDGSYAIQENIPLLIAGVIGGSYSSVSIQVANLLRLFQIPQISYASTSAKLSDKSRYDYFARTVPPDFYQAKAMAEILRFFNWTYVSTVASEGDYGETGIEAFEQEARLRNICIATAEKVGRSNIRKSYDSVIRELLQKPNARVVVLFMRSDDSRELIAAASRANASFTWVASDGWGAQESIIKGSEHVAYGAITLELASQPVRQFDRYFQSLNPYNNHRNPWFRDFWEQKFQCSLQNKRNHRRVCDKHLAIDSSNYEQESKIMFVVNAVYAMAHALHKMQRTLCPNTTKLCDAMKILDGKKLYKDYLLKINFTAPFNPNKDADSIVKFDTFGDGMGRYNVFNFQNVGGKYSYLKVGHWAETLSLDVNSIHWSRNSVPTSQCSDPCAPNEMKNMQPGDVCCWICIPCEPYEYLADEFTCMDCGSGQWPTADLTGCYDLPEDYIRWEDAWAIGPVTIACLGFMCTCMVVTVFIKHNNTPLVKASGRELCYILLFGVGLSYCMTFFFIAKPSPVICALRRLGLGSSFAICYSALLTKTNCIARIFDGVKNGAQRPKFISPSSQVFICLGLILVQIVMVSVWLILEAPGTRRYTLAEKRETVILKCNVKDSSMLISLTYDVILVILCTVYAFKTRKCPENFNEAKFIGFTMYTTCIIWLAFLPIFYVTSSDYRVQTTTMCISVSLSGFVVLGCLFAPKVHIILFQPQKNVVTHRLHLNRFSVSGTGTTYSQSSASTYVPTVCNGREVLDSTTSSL
Description: Human Embryonic Kidney (HEK-293) cell lines co-expressing rat mGlu receptors 2, 3, 4, 6, 7 or 8 and G protein-coupled inwardly-rectifying potassium (GIRK) channels were grown in Growth Media containing 45% DMEM, 45% F-12, 10% FBS, 20 mM HEPES, 2 mM L-glutamine, antibiotic/antimycotic, non-essential amino acids, 700 μg/mL G418, and 0.6 μg/ml puromycin at 37° C. in the presence of 5% CO2. […] All cell culture reagents were purchased from Invitrogen Corp. (Carlsbad, CA) unless otherwise noted. Calcium assays were used to assess activity of compounds at mGlu1 and mGlu5, as previously described in Engers et al (J. Med. Chem. 2009, 52, 4115-4118). Calcium assays at mGlu3 were performed as described for mGlu5 with the exception that TREx293 mGlu3 Gα15 cells were treated with tetracycline at 20 ng/mL for 20 h prior to assay.
Briefly, cells were plated into 384-well, black-walled, clear-bottomed poly-D-lysine-coated plates at a density of 15,000 cells/20 μL/well in DMEM containing 10% dialyzed FBS, 20 mM HEPES, and 100 units/mL penicillin/streptomycin (assay media). Plated cells were incubated overnight at 37° C. in the presence of 5% CO2. The following day, the medium was exchanged from the cells to assay buffer [Hanks' balanced salt solution (Invitrogen) containing 20 mM HEPES, pH 7.3] using an ELX405 microplate washer (BioTek), leaving 20 μL/well, followed by the addition of 20 μL/well FluoZin2-AM (330 nM final concentration) indicator dye (Invitrogen; prepared as a stock in DMSO and mixed in a 1:1 ratio with Pluronic acid F-127) in assay buffer. Cells were incubated for 1 h at room temperature, and the dye exchanged to assay buffer using an ELX405, leaving 20 μL/well. Test compounds were diluted to 2 times their final desired concentration in assay buffer (0.3% DMSO final concentration). Agonists were diluted in thallium buffer [125 mM sodium bicarbonate (added fresh the morning of the experiment), 1 mM magnesium sulfate, 1.8 mM calcium sulfate, 5 mM glucose, 12 mM thallium sulfate, and 10 mM HEPES, pH 7.3] at 5 times the final concentration to be assayed. Cell plates and compound plates were loaded onto a kinetic imaging plate reader (FDSS 6000 or 7000; Hamamatsu Corporation, Bridgewater, NJ). Appropriate baseline readings were taken (10 images at 1 Hz; excitation, 470±20 nm; emission, 540±30 nm) and test compounds were added in a 20 μL volume and incubated for approximately 2.5 min before the addition of 10 μL of thallium buffer with or without agonist. After the addition of agonist, data were collected for approximately an additional 2.5 min. Data were analyzed using Excel (Microsoft Corp, Redmond, WA). The slope of the fluorescence increase beginning 5 s after thallium/agonist addition and ending 15 s after thallium/agonist addition was calculated, corrected to vehicle and maximal agonist control slope values, and plotted in using either XLfit (ID Business Solutions Ltd) or Prism software (GraphPad Software, San Diego, CA) to generate concentration-response curves. Potencies were calculated from fits using a four-point parameter logistic equation. For concentration-response curve experiments, compounds were serially diluted 1:3 into 10-point concentration response curves and were transferred to daughter plates using an Echo acoustic plate reformatter (Labcyte, Sunnyvale, CA). Test compounds were applied and followed by EC20 concentrations of glutamate.

T1 sequence (P31421 19-872): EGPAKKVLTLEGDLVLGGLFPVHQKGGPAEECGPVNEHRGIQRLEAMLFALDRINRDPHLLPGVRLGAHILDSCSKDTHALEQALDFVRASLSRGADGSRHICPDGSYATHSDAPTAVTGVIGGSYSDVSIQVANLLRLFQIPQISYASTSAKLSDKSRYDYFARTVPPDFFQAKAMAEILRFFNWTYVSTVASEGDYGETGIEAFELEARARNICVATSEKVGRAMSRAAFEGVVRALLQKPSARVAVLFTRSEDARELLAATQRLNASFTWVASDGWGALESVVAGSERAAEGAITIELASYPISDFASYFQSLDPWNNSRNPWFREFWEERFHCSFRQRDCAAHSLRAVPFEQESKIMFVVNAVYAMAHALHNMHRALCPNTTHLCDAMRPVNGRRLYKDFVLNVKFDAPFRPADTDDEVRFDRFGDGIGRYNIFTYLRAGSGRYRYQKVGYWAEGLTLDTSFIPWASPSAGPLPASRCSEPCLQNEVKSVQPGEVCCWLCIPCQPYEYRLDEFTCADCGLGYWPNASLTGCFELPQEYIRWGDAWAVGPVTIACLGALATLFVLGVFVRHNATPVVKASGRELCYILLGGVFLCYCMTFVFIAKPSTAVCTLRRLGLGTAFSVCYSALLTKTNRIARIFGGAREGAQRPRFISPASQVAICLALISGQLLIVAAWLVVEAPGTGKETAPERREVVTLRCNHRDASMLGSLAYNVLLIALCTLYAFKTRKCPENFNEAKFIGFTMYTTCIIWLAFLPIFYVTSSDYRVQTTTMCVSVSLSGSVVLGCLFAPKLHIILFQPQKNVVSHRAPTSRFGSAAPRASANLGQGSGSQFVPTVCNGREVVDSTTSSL

## COc1ccc(C(=O)O)cc1C#CCCCOc1ccc(C(=O)CC(C)(C)C)c(O)c1C [Example 2, 3-(5-(4-(3,3-Dimethylbutanoyl)-3-hydroxy-2-methylphenoxy)pent-1-yn-1-yl)-4-methoxybenzoic acid]
[1]
  EC50: 0.456 µM
[2]
  EC50: 0.091 µM
[3]
  EC50: 0.144 µM
[4]
  EC50: 0.079 µM

## COc1ccc(C(=O)O)cc1OC/C=C/COc1ccc(C(=O)CC(C)(C)C)c(O)c1C [Example 4, (E)-3-((4-(4-(3,3-Dimethylbutanoyl)-3-hydroxy-2-methylphenoxy)but-2-en-1-yl)oxy)-4-methoxybenzoic acid]
[1]
  EC50: 0.067 µM
[2]
  EC50: 0.047 µM
[3]
  EC50: 0.056 µM
[4]
  EC50: 0.061 µM

## CCCC(=O)c1ccc(OCCOCCOc2ccc(C(=O)O)cc2OC)c(C)c1O [Example 5, 4-(2-(2-(4-Butyryl-3-hydroxy-2-methylphenoxy)ethoxy)ethoxy)-3-methoxybenzoic acid]
[1]
  EC50: 0.027 µM
[2]
  EC50: > 10 µM
[3]
  EC50: 0.026 µM
[4]
  EC50: > 10 µM

## CCCC(=O)c1ccc(OCCOCCOc2cccc(C(=O)O)c2C)c(C)c1O [Example 7, 3-(2-(2-(4-Butyryl-3-hydroxy-2-methylphenoxy)ethoxy)ethoxy)-2-methylbenzoic acid]
[1]
  EC50: 0.158 µM
[2]
  EC50: > 30 µM
[3]
  EC50: 0.116 µM
[4]
  EC50: > 10 µM

## CCCC(=O)c1ccc(OC/C=C/COc2cccc(C(=O)O)c2C)c(C)c1O [Example 8, (E)-3-((4-(4-Butyryl-3-hydroxy-2-methylphenoxy)but-2-en-1-yl)oxy)-2-methylbenzoic acid]
[1]
  EC50: 0.019 µM
[2]
  EC50: 0.489 µM
[3]
  EC50: 0.01 µM
[4]
  EC50: 0.534 µM

## CCCC(=O)c1ccc(OCCOCCNc2cccc(C(=O)O)c2)c(C)c1O [Example 9, 3-({2-[2-(4-Butanoyl-3-hydroxy-2-methylphenoxy)ethoxy]ethyl}amino)benzoic acid]
[1]
  EC50: 0.073 µM
[2]
  EC50: > 10 µM
[3]
  EC50: 0.05 µM
[4]
  EC50: > 10 µM

## COc1ccc(C(=O)O)cc1OCC#CCOc1ccc(C(=O)CC(C)(C)C)c(O)c1C [Example 10, 3-{4-[4-(3,3-Dimethylbutanoyl)-3-hydroxy-2-methylphenoxy]but-2-ynyloxy}-4-methoxybenzoic acid]
[1]
  EC50: 0.092 µM
[2]
  EC50: 0.039 µM
[3]
  EC50: 0.015 µM
[4]
  EC50: 0.016 µM

## COc1ccc(C(=O)O)cc1OCCCCCOc1ccc(C(=O)CC(C)(C)C)c(O)c1C [Example 11, 3-{5-[4-(3,3-Dimethylbutanoyl)-3-hydroxy-2-methylphenoxy]pentyloxy}-4-methoxybenzoic acid]
[1]
  EC50: 0.035 µM
[2]
  EC50: 0.315 µM
[3]
  EC50: 0.007 µM
[4]
  EC50: 0.126 µM

## COc1ccc(C(=O)O)cc1OCCSCCOc1ccc(C(=O)CC(C)(C)C)c(O)c1C [Example 12, 3-(2-{2-[4-(3,3-Dimethylbutanoyl)-3-hydroxy-2-methylphenoxy]ethylthio}ethoxy)-4-methoxybenzoic acid]
[1]
  EC50: 0.023 µM
[2]
  EC50: 0.07 µM
[3]
  EC50: 0.005 µM
[4]
  EC50: 0.015 µM

## CCCC(=O)c1ccc(OCCCCCOc2cccc(C(=O)O)c2C)c(C)c1O [Example 13]
[1]
  EC50: 0.114 µM
[2]
  EC50: > 10 µM
[3]
  EC50: 0.052 µM
[4]
  EC50: > 10 µM

## CCCC(=O)c1ccc(OCCCCCOc2ccc(C(=O)O)cc2OC)c(C)c1O [Example 14, 4-[5-(4-Butanoyl-3-hydroxy-2-methylphenoxy)pentyloxy]-3-methoxybenzoic acid]
[1]
  EC50: 0.016 µM
[2]
  EC50: 2.3 µM
[3]
  EC50: 0.009 µM
[4]
  EC50: > 30 µM

## CCCC(=O)c1ccc(OCCSCCOc2cccc(C(=O)O)c2C)c(C)c1O [Example 16, 3-{2-[2-(4-Butanoyl-3-hydroxy-2-methylphenoxy)ethylthio]ethoxy}-2-methylbenzoic acid]
[1]
  EC50: 0.056 µM
[2]
  EC50: > 10 µM
[3]
  EC50: 0.028 µM
[4]
  EC50: > 30 µM

## Cc1c(OCCCCCOc2ccc(C(=O)CC(C)(C)C)c(O)c2C)cccc1C(=O)O [Example 17, 3-{5-[4-(3,3-Dimethylbutanoyl)-3-hydroxy-2-methylphenoxy]pentyloxy}-2-methylbenzoic acid]
[1]
  EC50: 0.355 µM
[2]
  EC50: 1.52 µM
[3]
  EC50: 0.153 µM
[4]
  EC50: 0.768 µM

## COc1ccc(C(=O)O)cc1OCCCCCCOc1ccc(C(=O)CC(C)(C)C)c(O)c1C [Example 19, 3-{6-[4-(3,3-Dimethylbutanoyl)-3-hydroxy-2-methylphenoxy]hexyloxy}-4-methoxybenzoic acid]
[1]
  EC50: 0.288 µM
[2]
  EC50: 0.818 µM
[3]
  EC50: 0.165 µM
[4]
  EC50: 0.472 µM

## Cc1c(OCC#CCOc2ccc(C(=O)CC(C)(C)C)c(O)c2C)cccc1C(=O)O [Example 22, 3-{4-[4-(3,3-Dimethylbutanoyl)-3-hydroxy-2-methylphenoxy]but-2-ynyloxy}-2-methylbenzoic acid]
[1]
  EC50: 0.016 µM
[2]
  EC50: 0.02 µM
[3]
  EC50: 0.004 µM
[4]
  EC50: 0.039 µM

## Cc1c(OCCOCCOc2ccc(C(=O)CC(C)(C)C)c(O)c2C)cccc1C(=O)O [Example 23, 3-(2-{2-[4-(3,3-Dimethylbutanoyl)-3-hydroxy-2-methylphenoxy]ethoxy}ethoxy)-2-methylbenzoic acid]
[1]
  EC50: 0.091 µM
[2]
  EC50: 0.491 µM
[3]
  EC50: 0.045 µM
[4]
  EC50: 0.327 µM

## COC(=O)N(CCOc1cc(C(=O)O)ccc1OC)CCOc1ccc(C(=O)CC(C)(C)C)c(O)c1C [Example 24, 3-[2-(N-{2-[4-(3,3-Dimethylbutanoyl)-3-hydroxy-2-methylphenoxy]ethyl}methoxycarbonylamino)ethoxy]-4-methoxybenzoic acid]
[1]
  EC50: 0.176 µM
[2]
  EC50: 0.649 µM
[3]
  EC50: 0.082 µM
[4]
  EC50: 0.462 µM

## Cc1c(OCCSCCOc2ccc(C(=O)CC(C)(C)C)c(O)c2C)cccc1C(=O)O [Example 25]
[1]
  EC50: 0.137 µM
[2]
  EC50: 0.578 µM
[3]
  EC50: 0.06 µM
[4]
  EC50: 0.311 µM

## COc1ccc(C(=O)O)cc1OCCNCCOc1ccc(C(=O)CC(C)(C)C)c(O)c1C [Example 26, 3-[2-({2-[4-(3,3-Dimethylbutanoyl)-3-hydroxy-2-methylphenoxy]ethyl}amino)ethoxy]-4-methoxybenzoic acid]
[1]
  EC50: 2.16 µM
[2]
  EC50: 4.09 µM
[3]
  EC50: 0.156 µM
[4]
  EC50: 1.62 µM

## COc1ccc(C(=O)O)cc1OCCC(C)(C)CCOc1ccc(C(=O)CC(C)(C)C)c(O)c1C [Example 29, 3-{5-[4-(3,3-Dimethylbutanoyl)-3-hydroxy-2-methylphenoxy]-3,3-dimethylpentyloxy}-4-methoxybenzoic acid]
[1]
  EC50: 0.215 µM
[2]
  EC50: 1.03 µM
[3]
  EC50: 0.147 µM
[4]
  EC50: 0.634 µM

## CCCC(=O)c1ccc(OCCC(C)(C)CCOc2cccc(C(=O)O)c2C)c(C)c1O [Example 30, 3-[5-(4-Butanoyl-3-hydroxy-2-methylphenoxy)-3,3-dimethylpentyloxy]-2-methylbenzoic acid]
[1]
  EC50: 0.265 µM
[2]
  EC50: > 10 µM
[3]
  EC50: 0.055 µM
[4]
  EC50: > 10 µM

## COc1ccc(C(=O)O)cc1OCCC(C)COc1ccc(C(=O)CC(C)(C)C)c(O)c1C (centres unmarked) [Example 33, 3-{4-[4-(3,3-Dimethylbutanoyl)-3-hydroxy-2-methylphenoxy]-3-methylbutoxy}-4-methoxybenzoic acid]
[1]
  EC50: 0.217 µM
[2]
  EC50: 0.197 µM
[3]
  EC50: 0.132 µM
[4]
  EC50: 0.195 µM

## [2H]C([2H])(CCCC([2H])([2H])Oc1ccc(C(=O)CCC)c(O)c1C)Oc1cccc(C(=O)O)c1C [Example 35]
[1]
  EC50: 0.174 µM
[2]
  EC50: > 10 µM
[3]
  EC50: 0.066 µM
[4]
  EC50: > 10 µM
